Measured values as given in patent EP1712550A2, “Substituted triazole diamine derivatives as kinase inhibitors” (priority 2000, dated 2002).

Assays:
[1] = target: T1, HER2 (human epidermal growth factor receptor-2) (Homo sapiens, UniProt P04626); assay: Kinase Selectivity Assay HER2; assay type: biochemical; conditions: read-out: Kinase Assay (IC50 uM) HER2 Kinase
T1 construct: begins at amino acid 676 followed by the remainder of the HER2 cytoplasmic domain; polyhistidine (N)

[2] = target: T2, VEGF-R (vascular endothelial growth factor receptor-2) (Rattus norvegicus, UniProt O08775); assay: VEGF-R Screening Assay; assay type: biochemical; conditions: read-out: Kinase Assay (IC50 uM) VEGF-R
T2 construct: 6xHis (polyhistidine) (N)
T2 sequence (O08775 786-1343): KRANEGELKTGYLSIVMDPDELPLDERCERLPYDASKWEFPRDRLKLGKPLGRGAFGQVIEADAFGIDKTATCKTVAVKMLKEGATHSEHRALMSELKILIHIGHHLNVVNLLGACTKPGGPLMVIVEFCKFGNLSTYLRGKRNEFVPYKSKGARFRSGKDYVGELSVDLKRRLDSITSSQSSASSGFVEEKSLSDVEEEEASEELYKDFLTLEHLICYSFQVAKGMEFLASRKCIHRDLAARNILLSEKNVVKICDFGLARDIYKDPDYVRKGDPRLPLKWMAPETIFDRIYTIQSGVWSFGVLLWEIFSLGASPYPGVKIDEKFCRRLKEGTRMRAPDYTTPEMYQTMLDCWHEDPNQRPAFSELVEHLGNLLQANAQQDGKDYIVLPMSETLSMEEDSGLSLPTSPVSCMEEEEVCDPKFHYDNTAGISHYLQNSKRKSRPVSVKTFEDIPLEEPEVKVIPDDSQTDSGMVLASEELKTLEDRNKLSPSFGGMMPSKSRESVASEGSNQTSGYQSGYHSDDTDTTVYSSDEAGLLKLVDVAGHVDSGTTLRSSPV
Protocol: (§1) 70 µL of the kinase reaction mixture was dispensed into the well of a streptavidin coated FlashPlate™ (Cat. # SMP103, NEN, Boston, MA). Then 1 µL of test compound stock in 100% DMSO was added to the wells resulting in a final concentration of 1% DMSO in the reaction with a 100 µL final reaction volume. Next, soluble rat tyrosine kinase containing an N-terminal 6XHIS tag was diluted in 50 mM Tris-HCl pH=8.0, 0.1% BSA at a concentration of 5 ng per µL and 30 µL (150 ng enzyme per test well) was added to each well to initiate the reaction. The reaction was incubated for one hour at 30°C. At the end of the 1-hour incubation, the reaction was terminated by aspirating the reaction mixture from the plate and washing the wells twice with PBS containing 100 mM EDTA. The PLC1 biotinylated peptide substrate became immobilized on the Flashplate™ and the incorporation of ^33P-γ-ATP was measured by reading the plate on a scintillation counter. Inhibition of the enzymatic activity of the VEGF-R was measured by observing a reduced amount of ^33P-γ-ATP incorporated into the immobilized peptide. […]

[3] = target: T3, EGFR (epidermal growth factor receptor) (Homo sapiens, UniProt P00533); assay: Kinase Selectivity Assay EGF-R; assay type: biochemical; conditions: read-out: Kinase Assay (IC50 uM) EGF-R
T3 construct: is purified from human A431 cell membranes (Sigma, St. Louis, MO, Cat.# E3641); purchased Sigma, St. Louis, MO E3641; host or cells: human A431 cell membranes (endogenous protein)
T3 sequence (P00533 25-1210): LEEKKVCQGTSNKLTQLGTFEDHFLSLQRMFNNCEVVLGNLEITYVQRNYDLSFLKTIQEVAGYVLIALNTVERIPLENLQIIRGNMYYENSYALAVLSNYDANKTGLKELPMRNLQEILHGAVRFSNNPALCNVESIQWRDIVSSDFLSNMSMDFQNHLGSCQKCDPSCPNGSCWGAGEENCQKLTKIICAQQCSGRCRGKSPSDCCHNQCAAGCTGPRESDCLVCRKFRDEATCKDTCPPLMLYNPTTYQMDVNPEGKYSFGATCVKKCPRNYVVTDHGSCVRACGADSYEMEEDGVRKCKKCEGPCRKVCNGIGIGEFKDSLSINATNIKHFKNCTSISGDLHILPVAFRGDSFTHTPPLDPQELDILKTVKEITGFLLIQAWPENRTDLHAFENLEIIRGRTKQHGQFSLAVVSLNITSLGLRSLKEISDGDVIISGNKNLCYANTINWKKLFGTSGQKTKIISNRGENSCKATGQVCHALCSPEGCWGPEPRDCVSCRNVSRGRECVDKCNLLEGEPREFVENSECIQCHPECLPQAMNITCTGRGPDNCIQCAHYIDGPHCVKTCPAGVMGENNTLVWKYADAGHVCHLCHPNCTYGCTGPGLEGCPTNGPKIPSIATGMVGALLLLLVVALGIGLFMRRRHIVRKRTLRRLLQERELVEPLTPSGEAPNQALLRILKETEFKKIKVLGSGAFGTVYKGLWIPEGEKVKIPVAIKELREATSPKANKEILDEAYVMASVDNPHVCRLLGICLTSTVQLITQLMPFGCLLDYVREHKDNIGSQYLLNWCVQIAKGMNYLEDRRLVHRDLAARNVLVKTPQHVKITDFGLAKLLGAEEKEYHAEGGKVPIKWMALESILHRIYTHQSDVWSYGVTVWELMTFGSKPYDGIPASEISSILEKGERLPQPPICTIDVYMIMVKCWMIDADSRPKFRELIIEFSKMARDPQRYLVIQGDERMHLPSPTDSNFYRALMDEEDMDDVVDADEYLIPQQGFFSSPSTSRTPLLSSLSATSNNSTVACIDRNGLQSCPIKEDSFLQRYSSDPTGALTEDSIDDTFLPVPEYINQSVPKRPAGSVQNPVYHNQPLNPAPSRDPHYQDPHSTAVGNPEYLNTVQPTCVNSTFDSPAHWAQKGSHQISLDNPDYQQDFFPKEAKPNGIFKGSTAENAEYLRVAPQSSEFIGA

CDK1:Cyclin-B = target: T4, CDK1:Cyclin-B (Homo sapiens, UniProt P06493); assay: CDK1 Screening Assay; assay type: biochemical; conditions: read-out: Kinase Assay (IC50 uM) CDK1
T4 construct: purchased New England Biolabs, Beverly, MA 6020; host or cells: insect cells
T4 sequence (P06493 whole entry): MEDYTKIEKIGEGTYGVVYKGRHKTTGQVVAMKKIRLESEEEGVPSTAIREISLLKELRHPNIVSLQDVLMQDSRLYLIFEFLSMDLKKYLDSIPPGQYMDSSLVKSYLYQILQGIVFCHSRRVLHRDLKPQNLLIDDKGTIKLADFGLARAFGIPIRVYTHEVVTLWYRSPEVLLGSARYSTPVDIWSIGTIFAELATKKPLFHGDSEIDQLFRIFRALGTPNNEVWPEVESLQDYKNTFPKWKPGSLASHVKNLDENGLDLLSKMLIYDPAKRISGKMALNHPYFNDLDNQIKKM
T4 sequence (P14635 whole entry partner): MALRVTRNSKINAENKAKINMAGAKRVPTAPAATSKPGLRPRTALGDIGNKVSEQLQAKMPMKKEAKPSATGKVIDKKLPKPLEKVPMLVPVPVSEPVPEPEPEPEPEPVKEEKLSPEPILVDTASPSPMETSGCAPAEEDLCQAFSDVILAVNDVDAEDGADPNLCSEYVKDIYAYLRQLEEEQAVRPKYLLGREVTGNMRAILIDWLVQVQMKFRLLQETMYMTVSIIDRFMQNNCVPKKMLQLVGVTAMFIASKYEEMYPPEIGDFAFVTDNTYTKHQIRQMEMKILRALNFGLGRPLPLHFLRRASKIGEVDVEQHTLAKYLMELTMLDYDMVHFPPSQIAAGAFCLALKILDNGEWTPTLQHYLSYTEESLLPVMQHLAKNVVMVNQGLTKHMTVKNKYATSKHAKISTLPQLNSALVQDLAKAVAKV
Protocol: as §1, with “100 µl” for “100 µL”, “Next, CDK1:Cyclin-B protein” for “Next, soluble rat tyrosine kinase containing an N-terminal 6XHIS tag”, “of 1” for “of 5”, “30 µl (30ng” for “30 µL (150 ng”, “The histone-H1” for “The PLC1”, “of CDK1” for “of the VEGF-R”

[4] = target: T5, CDK2 in complex with cyclin A (Homo sapiens, UniProt P24941); assay: Kinase Selectivity Assay CDK2; assay type: biochemical
T5 construct: purchased Upstate Biotech, Lake Placid, NY

A375 malignant melanoma = assay: Inhibition of Cell Proliferation, 14C-thymidine incorporation, A375; assay type: cell-based; conditions: Homo sapiens, A-375; Cell Line A375
Protocol: (§2) The ability of a test compound to inhibit the proliferation of cell growth was determined by measuring incorporation of ^14C-labelled thymidine into newly synthesized DNA within the cells. This method was used on cell lines derived from carcinomas originating from several tissues such as HeLa cervical adenocarcinoma (American Type Culture Collection (ATCC), Virginia, Cat. #CCL-2), A375 malignant melanoma (ATCC CRL-1619), SK-OV-3 ovarian adenocarcinoma (ATCC HTB-77) HCT-116 colon carcinoma (CCL-247), PC-3 prostate adenocarcinoma (ATCC CRL-1435), and MDA-MB-231 (Xenogen Corp.) In this way the effect of a compound on cell growth of cells with many different phenotypes can be determined. Cells were trypsinized and counted and 3000-8000 cells were added to each well of a 96-well CytoStar tissue culture treated scintillating microplate (Amersham #RPNQ0160) in complete medium in a volume of 100 µl. Cells were incubated for 24 hours in complete medium at 37°C in an atmosphere containing 5% CO2. Next, 1 µl of test compound in 100% DMSO was added to the wells of the plate. DMSO only was added to control wells. Cells were incubated for 24 more hours in complete medium at 37°C in an atmosphere containing 5% CO2. Methyl^14C-thymidine 56 mCi/mmol (NEN #NEC568 or Amersham #CFA532) was diluted in complete medium and 0.2 uCi/well was added to each well of the CytoStar plate in a volume of 20 ul. The plate was incubated for 24 hours at 37°C plus 5% CO2 in drug plus ^14C-thymidine. The contents of the plate were discarded into a ^14C radioactive waste container by inverting the plate and the plate was washed twice with 200 µl PBS. 200 µl of PBS is added to each well. The top of the plate was sealed with a transparent plate sealer and a white plate backing sealer (Packard #6005199) was applied to the bottom of the plate. The degree of methyl ^14C-thymidine incorporation was quantified on a Packard Top Count.

[5] = tested on: HeLa cervical adenocarcinoma; assay: Inhibition of Cell Proliferation, 14C-thymidine incorporation, HeLa; assay type: cell-based; conditions: Homo sapiens; Cell Line HeLa
Protocol: as §2

HCT-116 colon carcinoma = assay: Inhibition of Cell Proliferation, 14C-thymidine incorporation, HCT-116; assay type: cell-based; conditions: Homo sapiens; Cell Line HCT-116
Protocol: as §2

[6] = tested on: PC-3 prostate adenocarcinoma; assay: Inhibition of Cell Proliferation, 14C-thymidine incorporation, PC-3; assay type: cell-based; conditions: Cell Line PC-3
Protocol: as §2

Insulin Receptor Kinase = Insulin Receptor Kinase (Homo sapiens, UniProt P06213); assay: Kinase Selectivity Assay Insulin Receptor Kinase; assay type: biochemical; conditions: read-out: Kinase Assay (IC50 uM) Insulin R Kinase
Insulin Receptor Kinase, sequence (P06213 980-1352): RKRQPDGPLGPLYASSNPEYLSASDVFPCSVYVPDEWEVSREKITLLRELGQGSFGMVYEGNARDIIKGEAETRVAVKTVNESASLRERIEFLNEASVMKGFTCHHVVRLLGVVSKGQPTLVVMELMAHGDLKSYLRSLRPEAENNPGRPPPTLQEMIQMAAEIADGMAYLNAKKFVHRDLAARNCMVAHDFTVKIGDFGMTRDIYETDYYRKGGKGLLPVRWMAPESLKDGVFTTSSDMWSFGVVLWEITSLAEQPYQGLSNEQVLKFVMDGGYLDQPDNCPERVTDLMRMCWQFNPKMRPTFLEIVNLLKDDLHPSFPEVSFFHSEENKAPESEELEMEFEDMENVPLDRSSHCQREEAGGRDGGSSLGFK

PKC (protein kinase-C) = assay: Kinase Selectivity Assay PKC; assay type: biochemical, human

T1 sequence (P04626 676-1255 limits assumed): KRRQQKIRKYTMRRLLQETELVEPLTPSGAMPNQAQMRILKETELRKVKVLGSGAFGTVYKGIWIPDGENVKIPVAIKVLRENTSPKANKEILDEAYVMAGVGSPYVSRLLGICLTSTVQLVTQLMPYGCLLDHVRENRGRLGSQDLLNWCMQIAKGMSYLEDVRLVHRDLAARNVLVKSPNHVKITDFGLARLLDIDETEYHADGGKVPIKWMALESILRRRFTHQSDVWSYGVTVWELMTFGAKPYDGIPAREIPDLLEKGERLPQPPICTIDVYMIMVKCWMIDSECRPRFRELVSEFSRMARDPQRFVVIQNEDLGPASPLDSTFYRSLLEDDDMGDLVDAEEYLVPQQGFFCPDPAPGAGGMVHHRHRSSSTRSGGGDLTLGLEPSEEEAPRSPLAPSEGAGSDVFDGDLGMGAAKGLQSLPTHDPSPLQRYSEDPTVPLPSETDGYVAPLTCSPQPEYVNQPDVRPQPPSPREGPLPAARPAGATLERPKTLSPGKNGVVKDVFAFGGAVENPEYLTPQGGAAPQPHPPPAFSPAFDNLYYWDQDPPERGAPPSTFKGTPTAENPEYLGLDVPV

Nc1nc(Nc2ccc(N3CCNC3=O)cc2)nn1C(=O)c1c(F)cccc1F [Cpd 115, 1-[4-[[5-axnino-1-(2,6-difluorobenzoyl)-1H-1,2,4-triazol-3-yl]amino]phenyl]-2-imidazolidinone]
IC50 [1]: 1.44 µM
IC50 [2]: 0.467 µM
IC50 [3]: > 10 µM
IC50 (CDK1:Cyclin-B): 0.313 µM

Nc1nc(Nc2cccc(Cl)c2)n(C(=O)c2c(F)cccc2F)n1 [Cpd 126, N^5-(3-chlorophenyl)-1-(2,6-difluorobenzoyl)-1H-1,2,4-triazole-3,5-diamine]
IC50 [4]: > 100 µM

Cc1ccc(F)c(C(=O)n2nc(Nc3ccc(S(=O)(=O)NCCN(C)C)cc3)nc2N)c1F [Cpd 105, 4-[[5-amino-1-(2,6-difluoro-3-methylbenzoyl)-1H-1,2,4-triazol-3-yl]amino]-N-[2-(dimethylamino)ethyl]-benzenesulfonamide]
IC50 [1]: 0.845 µM
IC50 [2]: 0.276 µM
IC50 [3]: 9.6 µM
IC50 (CDK1:Cyclin-B): 0.046 µM

Nc1nc(Nc2cccc(Cl)c2)n(C(=O)c2ccccc2)n1 [Cpd 127, 1-benzoyl-N^5-(3-chlorophenyl)-1H-1,2,4-triazole-3,5-diamine]
IC50 [4]: > 100 µM

Cc1ccc(F)c(C(=O)n2nc(Nc3ccc(N4CCNC4=O)cc3)nc2N)c1F [Cpd 114, 1-[4-[[5-amino-1-(2,6-difluoro-3-methylbenzoyl)-1H 1,2,4-triazol-3-yl]amino]phenyl]-2-imidazolidinone]
IC50 [1]: 1.39 µM
IC50 [2]: 0.313 µM
IC50 [3]: > 100 µM
IC50 (CDK1:Cyclin-B): 0.228 µM

Cc1ccsc1C(=O)n1nc(Nc2ccc(S(=O)(=O)Nc3ccccn3)cc2)nc1N [Cpd 121, 4-[[5-amino-1-[(3-methyl-2-thienyl)carbonyl]-1H-1,2,4-triazol-3-yl]amino]-N-(2-pyridinyl)-benzenesulfonamide]
IC50 [1]: 0.717 µM
IC50 [2]: 0.027 µM
IC50 [3]: > 10 µM
IC50 (CDK1:Cyclin-B): 0.099 µM

Nc1nc(Nc2ccc(S(N)(=O)=O)cc2)n(C(=S)Nc2c(F)cccc2F)n1 [Cpd 128, 3-amino-5-[[4-(aminosulfonyl)phenyl]amino]-N-(2,6-difluorophenyl)-1H-1,2,4-triazole-1-carbothioamide]
IC50 [1]: 0.11 µM
IC50 (A375 malignant melanoma): 968 nM
IC50 [5]: 128 nM
IC50 [3]: > 100 µM
IC50 (HCT-116 colon carcinoma): 910 nM

Nc1nc(Nc2ccc(N3CCCS3(=O)=O)cc2)nn1C(=O)c1c(F)cccc1F [Cpd 117, 1-(2,6-difluorobenzoyl)-N^3-[4-(1,1-dioxido-2-isothiazolidinyl)phenyl]-1H-1,2,4-triazole-3,5-diamine]
IC50 [1]: 5.44 µM
IC50 [3]: > 100 µM
IC50 (CDK1:Cyclin-B): 0.035 µM

Cc1ccsc1C(=O)n1nc(Nc2ccc(S(N)(=O)=O)cc2)nc1N [Cpd 15, 4-[[5-amino-1-[(3-methyl-2-thienyl)carbonyl]-1H-1,2,4-triazol-3-yl]amino]-benzenesulfonamide]
IC50 [6]: 107 nM
IC50 (A375 malignant melanoma): 247 nM
IC50 [5]: 91 nM
IC50 (HCT-116 colon carcinoma): 127 nM

Cc1cc(C)c(C(=O)n2nc(Nc3ccc(NS(C)(=O)=O)cc3)nc2N)s1 [Cpd 108, N-[4-[[5-amino-1-[(3,5-dimethyl-2-thienyl)carbonyl]-1H-1,2,4-triazol-3-yl]amino]phenyl]-methanesulfonamide]
IC50 (A375 malignant melanoma): 259 nM
IC50 [5]: 221 nM
IC50 (Insulin Receptor Kinase): 0.81 µM
IC50 [3]: > 100 µM
IC50 (HCT-116 colon carcinoma): 76 nM

Nc1nc(Nc2ccc(S(N)(=O)=O)cc2)nn1C(=S)Nc1c(F)cccc1F [Cpd 66, 5-amino-3-[[4-(aminosulfonyl)phenyl]amino]-N-(2,6-difluorophenyl)-1H-1,2,4-triazole-1-carbothioamide]
IC50 (A375 malignant melanoma): 92 nM
IC50 [5]: 35 nM
IC50 (HCT-116 colon carcinoma): 20 nM

Cc1ccsc1C(=O)n1nc(Nc2ccc(NS(C)(=O)=O)cc2)nc1N [Cpd 109, N-[4-[[5-amino-1-[(3-methyl-2-thienyl)carbonyl]-1H-1,2,4-triazol-3-yl]amino]phenyl]-methanesulfonamide]
IC50 [1]: 0.17 µM
IC50 [2]: 0.025 µM
IC50 [3]: > 100 µM
IC50 (CDK1:Cyclin-B): 0.147 µM

Cc1ccsc1C(=O)n1nc(Nc2ccc(-n3cncn3)cc2)nc1N [Cpd 99, 1-[(3-methyl-2-thienyl)carbonyl]-N^3-[4-(1H-1,2,4-triazol-1-yl)phenyl]-1H-1,2,4-triazole-3,5-diamine]
IC50 [1]: 0.095 µM
IC50 (PKC (protein kinase-C)): > 100 µM
IC50 [3]: > 100 µM
IC50 (CDK1:Cyclin-B): 0.366 µM

Cc1ccc(F)c(C(=O)n2nc(Nc3ccc(S(N)(=O)=O)cc3)nc2N)c1Cl [Cpd 69, 4-[[5-amino-1-(2-chloro-6-fluoro-3-methylbenzoyl)-1H-1,2,4-triazol-3-yl]amino]-benzenesulfonamide]
IC50 [1]: 0.139 µM
IC50 [6]: 8 nM
IC50 [2]: 0.685 µM
IC50 [3]: > 100 µM

Cc1cc(C)c(C(=O)n2nc(Nc3ccc(S(=O)(=O)NCCN(C)C)cc3)nc2N)s1 [Cpd 107, 4-[[5-amino-1-[(3,5-dimethyl-2-thienyl)carbonyl]-1H-1,2,4-triazol-3-yl]amino]-N-[2-(dimethylamino)ethyl]-benzenesulfonamide]
IC50 [1]: 0.03 µM
IC50 [2]: 0.032 µM
IC50 [3]: 0.936 µM
IC50 (CDK1:Cyclin-B): 0.014 µM

CNS(=O)(=O)c1ccc(Nc2nc(N)n(C(=O)c3c(F)ccc(C)c3F)n2)cc1 [Cpd 81, 4-[[5-amino-1-(2,6-difluoro-3-methylbenzoyl)-1H-1,2,4-triazol-3-yl]amino]-N-methyl-benzenesulfonamide]
IC50 [1]: 1.7 µM
IC50 [2]: 0.482 µM
IC50 [3]: > 100 µM
IC50 (CDK1:Cyclin-B): 0.018 µM

CCc1ccc(C(=O)n2nc(Nc3ccc(S(=O)(=O)Nc4ccccn4)cc3)nc2N)s1 [Cpd 119, 4-[[5-amino-1-[(5-ethyl-2-thienyl)carbonyl]-1H-1,2,4-triazol-3-yl]amino]-N-(2-pyridinyl)-benzenesulfonamide]
IC50 (A375 malignant melanoma): 199 nM
IC50 [5]: 146 nM
IC50 (PKC (protein kinase-C)): > 100 µM
IC50 [2]: 0.057 µM
IC50 (CDK1:Cyclin-B): 0.067 µM
IC50 (HCT-116 colon carcinoma): 117 nM
